Reference: US6613961B1, “Plants capable of metabolizing drugs and use thereof” (priority 1998, dated 2003)

Tests used:
[1] = system: non-transformed tobacco plants; only vector introduced; assay: Assay for herbicide resistance in tobacco, control plants; format: in vivo; details: for Tolerance to chlorosulfuron: cultured for 40 days
Experimental: (§1) Transformed and non-transformed tobacco plants proliferated from axillary buds were transferred onto hormone-free Murashige & Skoog (MS) medium containing 0, 20, 50, 100, or 200 nM chlorosulfuron for assaying tolerance at growth.
(§2) 4, the same growth as that when the herbicide was not dispersed.

[2] = molecular target: Human CYP2C9 (Homo sapiens, UniProt P11712); assay: Herbicide metabolism by human P450 molecular species (microsomal fraction); format: in vitro ADME
[3] = system: tobacco R0 plants; assay: Herbicide metabolism in the tobacco R0 plants; format: in vivo; details: 14C-labeled 0.5 mM chlorosulfuron (20 μl) on the leaf surface; 50 hours; thin layer chromatography
Experimental: Using the tobacco R0 plants 3 weeks after transplantation, metabolism of chlorosulfuron was measured by the method of Sweetser et al. (Sweetser, P. B. et al., Pestic. Biochem. Physiol., 1982, 17, 18-23). ^14C-labeled 0.5 mM chlorosulfuron (20 μl) was spread on the leaf surface. The leaf surface was washed with acetone 50 hours after the treatment, and a metabolite was extracted by acetone extraction. The extract was concentrated and dried by a rotary evaporator, dissolved in methanol, and analyzed by thin layer chromatography using benzene:acetone:formic acid (30:10:1) as an solvent.

[4] = system: seeds of Nipponbare into which the gene was not introduced; assay: Germination assay for herbicide resistance, non-introduced rice seeds; format: in vivo, rice (Nipponbare); details: after about 4 to 7 days
[5] = system: tobacco transformants; assay: Assay for herbicide resistance in the tobacco R0 plants (human CYP2C9); format: in vivo; parameters: Tolerance to chlorosulfuron: key: 1: almost dead; 2: severely inhibited growth; 3: slightly inferior growth; 4: the same growth as that when the herbicide was not dispersed; details: for Tolerance to chlorosulfuron: cultured for 40 days
Experimental: as §1, §2

[6] = system: human P4502C9 gene-introduced rice; assay: Germination assay for herbicide resistance of human P4502C9 gene-introduced rice R1 seeds; format: in vivo
[7] = system: human P4502C18 gene-introduced rice; assay: Germination assay for herbicide resistance of human P4502C18 gene-introduced rice R1 seeds; format: in vivo
[8] = system: human P4502C19 gene-introduced rice; assay: Germination assay for herbicide resistance of human P4502C19 gene-introduced rice R1 seeds; format: in vivo
[9] = system: S1972 (human CYP2B6); details: acetochlor 20 μmol, metolachlor 30 μmol dispersed
[10] = molecular target: T1, Human CYP2B6 (Homo sapiens, UniProt P20813); assay: Metabolism of herbicides in microsomes of recombinant yeast expressing human P450
T1 sequence (P20813 1-491): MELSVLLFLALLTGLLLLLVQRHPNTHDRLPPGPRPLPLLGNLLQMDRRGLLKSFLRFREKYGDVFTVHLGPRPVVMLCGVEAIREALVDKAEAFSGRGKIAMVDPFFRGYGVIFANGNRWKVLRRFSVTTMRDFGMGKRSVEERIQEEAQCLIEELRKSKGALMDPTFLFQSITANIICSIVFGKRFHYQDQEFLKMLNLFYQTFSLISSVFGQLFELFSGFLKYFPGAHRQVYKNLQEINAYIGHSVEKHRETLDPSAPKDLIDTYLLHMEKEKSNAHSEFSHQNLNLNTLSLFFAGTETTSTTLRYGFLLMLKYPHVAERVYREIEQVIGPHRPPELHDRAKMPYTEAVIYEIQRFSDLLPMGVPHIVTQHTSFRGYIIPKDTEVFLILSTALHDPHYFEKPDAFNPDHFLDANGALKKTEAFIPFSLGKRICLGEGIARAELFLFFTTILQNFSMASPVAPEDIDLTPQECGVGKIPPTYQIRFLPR
Experimental: The reaction was carried out in a range of temperature suitable for an organism from which a p450 molecular species is derived (for example, 37° C. for human P450), by mixing with air while vigorously shaking, within a period during which an enzyme is not inactivated (for example, for 10 to 60 min).
From the height of the peak, a metabolized amount can be obtained.
To 0.1 M potassium phosphate buffer (pH 7.4), the microsomal fraction prepared from each of yeast strains respectively expressing one of 11 human P450 molecular species (obtained from Sumitomo Chemical) was added so that the amount of the p450 would be 25 pmol. Furthermore, 0.5 mM NADPH, 5 mM glucose 6 phosphate, 1 U/ml glucose 6 phosphate dehydrogenase, and 0.1 mM each of the following herbicides (those available in the market were used) were added at the final concentrations thereto to make the total volume of 100 μl. The reaction mixture was shaken at 37° C. for 60 min, and an organic solvent was added thereto for the extraction. The extract was applied to the high performance liquid chromatography, and the metabolite was measured.

[11] = system: S1974 (human CYP2C19); assay: Herbicide tolerance assay for transformants; format: in vivo, Solanum tuberosum cv. MayQueen; details: acetochlor 20 μmol, atrazine 1.2 μmol, metolachlor 30 μmol dispersed
Text: Then, herbicides were dispersed.

[12] = system: potato transformants; assay: Assay for herbicide resistance of potato transformants (human CYP2C19); details: for Resistance to herbicide: Transformant, 14 days after dispersal
[13] = system: non-transformed MayQueen; assay: Assay for herbicide resistance, non-transformed potato; format: in vivo; details: 14 days after dispersal
Text: 4, the same growth as that when herbicide was not dispersed.

[14] = system: potato transformants; assay: Herbicide metabolism in the potato transformants; format: in vivo, potato (MayQueen); details: 14C-labeled pyributicarb 10 μM in the medium; cultured for 8 days; thin layer chromatography
Experimental: The potato transformants proliferated from axillary buds, elongated to about 10 cm, were cultured in the medium added with the ^14C-labeled pyributicarb at the concentration of 10 μM. The plants were cultured for 8 days, and metabolites were extracted from the plants (Murakami, M. et al., J. Pesticide. Sci., 1997, 22, 222-225). The metabolites and the culture solution were analyzed by thin layer chromatography (Shiota, N. et al., Pestic. Biochem. Physiol., 1996, 54, 190-198).

[15] = molecular target: T2, Human CYP2C19 (Homo sapiens, UniProt P33261); assay: Metabolism of herbicides in microsomes of recombinant yeast expressing human P450; format: in vitro ADME
T2 construct: purchased Sumitomo Chemical; host or cells: recombinant yeast, microsomal fraction
T2 sequence (P33261 whole entry): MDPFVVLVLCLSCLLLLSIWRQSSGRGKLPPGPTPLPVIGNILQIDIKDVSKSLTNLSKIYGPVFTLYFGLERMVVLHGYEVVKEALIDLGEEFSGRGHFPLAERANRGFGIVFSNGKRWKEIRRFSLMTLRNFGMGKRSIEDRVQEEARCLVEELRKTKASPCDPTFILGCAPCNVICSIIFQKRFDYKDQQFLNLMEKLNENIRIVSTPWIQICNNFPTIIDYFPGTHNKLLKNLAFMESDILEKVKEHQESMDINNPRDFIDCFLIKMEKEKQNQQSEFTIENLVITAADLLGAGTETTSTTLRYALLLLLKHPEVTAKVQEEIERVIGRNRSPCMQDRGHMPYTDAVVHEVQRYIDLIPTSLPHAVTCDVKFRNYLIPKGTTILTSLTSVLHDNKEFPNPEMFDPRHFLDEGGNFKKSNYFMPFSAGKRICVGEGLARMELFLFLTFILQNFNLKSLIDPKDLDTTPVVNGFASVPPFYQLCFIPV

Human CYP2C9, sequence (P11712 whole entry): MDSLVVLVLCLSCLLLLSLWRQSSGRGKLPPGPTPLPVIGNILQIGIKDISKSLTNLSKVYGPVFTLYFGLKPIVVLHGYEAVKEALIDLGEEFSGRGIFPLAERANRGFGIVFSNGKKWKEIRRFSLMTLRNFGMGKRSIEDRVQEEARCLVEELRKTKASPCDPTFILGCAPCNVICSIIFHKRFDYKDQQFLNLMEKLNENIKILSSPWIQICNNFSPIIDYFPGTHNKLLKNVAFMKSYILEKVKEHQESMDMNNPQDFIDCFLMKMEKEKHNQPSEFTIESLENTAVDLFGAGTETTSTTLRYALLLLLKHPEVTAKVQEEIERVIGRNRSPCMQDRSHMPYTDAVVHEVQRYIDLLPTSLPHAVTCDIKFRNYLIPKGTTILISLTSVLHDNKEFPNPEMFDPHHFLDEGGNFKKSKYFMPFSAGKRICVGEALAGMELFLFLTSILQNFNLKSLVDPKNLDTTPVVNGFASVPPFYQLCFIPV

Structure (SMILES): COc1nc(C)nc(NC(=O)NS(=O)(=O)c2ccccc2Cl)n1 [chlorosulfuron]
- growth of the non-transformed plants ([1]; 50 nM chlorosulfuron): completely inhibited
- Tolerance to chlorosulfuron ([1]; Non-transformed, 20 nM): 2
- Tolerance to chlorosulfuron ([1]; Non-transformed, 50 nM): 1.5
- Tolerance to chlorosulfuron ([1]; Non-transformed, 100 nM): 1
- Tolerance to chlorosulfuron ([1]; Non-transformed, 200 nM): 0.5
- Tolerance to chlorosulfuron ([1]; Only vector introduced, 20 nM): 2
- Tolerance to chlorosulfuron ([1]; Only vector introduced, 50 nM): 1.5
- Tolerance to chlorosulfuron ([1]; Only vector introduced, 100 nM): 1
- Tolerance to chlorosulfuron ([1]; Only vector introduced, 200 nM): 0.5
- metabolic reaction confirmed [2]: ring hydroxylation
- water-soluble substances which remained at the starting point of the development, in the transformants [3]: increased
- Germination of seeds ([4]; chlorosulfuron 250 nM): inhibited
- growth of the transformants ([5]; 200 nM chlorosulfuron): grew
- Tolerance to chlorosulfuron ([5]; transformant N8, 20 nM): 4
- Tolerance to chlorosulfuron ([5]; transformant N8, 50 nM): 4
- Tolerance to chlorosulfuron ([5]; transformant N8, 100 nM): 2.5
- Tolerance to chlorosulfuron ([5]; transformant N8, 200 nM): 2
- Tolerance to chlorosulfuron ([5]; transformant N60, 20 nM): 4
- Tolerance to chlorosulfuron ([5]; transformant N60, 50 nM): 4
- Tolerance to chlorosulfuron ([5]; transformant N60, 100 nM): 3
- Tolerance to chlorosulfuron ([5]; transformant N60, 200 nM): 3
- Tolerance to chlorosulfuron ([5]; transformant N61, 20 nM): 4
- Tolerance to chlorosulfuron ([5]; transformant N61, 50 nM): 4
- Tolerance to chlorosulfuron ([5]; transformant N61, 100 nM): 2
- Tolerance to chlorosulfuron ([5]; transformant N61, 200 nM): 2
- Tolerance to chlorosulfuron ([5]; transformant N69, 20 nM): 4
- Tolerance to chlorosulfuron ([5]; transformant N69, 50 nM): 4
- Tolerance to chlorosulfuron ([5]; transformant N69, 100 nM): 2
- Tolerance to chlorosulfuron ([5]; transformant N69, 200 nM): 2
- The number of tolerant lines ([6]; 2C9, 250 nM · 2 ml, 44 sample lines): 15
- elongation of shoots and roots of segregated individuals ([6]; chlorosulfuron 250 nM): normally elongated

Structure (SMILES): CCc1cccc(C)c1N(C(=O)CCl)C(C)COC (stereo not shown) [metolachlor]
- The number of tolerant lines ([7]; 2C18, 4 μM · 2 ml, 72 sample lines): 3
- elongation of shoots and roots of segregated individuals ([7]; metolachlor 4 μM): normally elongated
- The number of tolerant lines ([8]; 2C19, 4 μM · 2 ml, 68 sample lines): 13
- elongation of shoots and roots of segregated individuals ([8]; metolachlor 4 μM): normally elongated
- resistance of the transformant to the herbicide [9]: strong resistance
- Germination of seeds ([4]; […] metolachlor, […] alachlor, 15 μM triflurarin): inhibited
- Germination of seeds ([4]; metolachlor 4 μM): inhibited
- metabolic reaction confirmed [10]: O-deethylation, O-demethylation
- resistance of the transformant to the herbicide [11]: strong resistance
- Resistance to herbicide ([12]; Metolachlor 10 μmol/pot): 2.5
- Resistance to herbicide ([12]; Metolachlor 15 μmol/pot): 3.5
- Resistance to herbicide ([12]; Metolachlor 20 μmol/pot): 2.5
- resistance of the transformant compared with the non-transformed MayQueen ([12]; herbicide dispersed 1 week after transfer to pots): higher resistance
- Resistance to herbicide ([13]; Metolachlor 10 μmol/pot): 2
- Resistance to herbicide ([13]; Metolachlor 15 μmol/pot): 2
- Resistance to herbicide ([13]; Metolachlor 20 μmol/pot): 1.5

Structure (SMILES): COc1cccc(N(C)C(=S)Oc2cccc(C(C)(C)C)c2)n1 [pyributicarb]
- amounts of pyributicarb in transgenic plant and in the medium compared with non-transformed MayQueen [14]: obviously reduced
- metabolic reaction confirmed [15]: thioester cleavage
